What was measured:
HT-29 = test: Cytotoxicity against human HT-29 cells assessed as inhibition of cell proliferation after 96 hrs; type: functional, cell-based; settings: HT-29, 96 h
A549 = test: Cytotoxicity against human A549 cells assessed as inhibition of cell proliferation after 96 hrs; type: functional, cell-based; settings: A549, 96 h
HCT-116 = test: Cytotoxicity against human HCT116 cells assessed as inhibition of cell proliferation after 96 hrs; type: functional, cell-based; settings: HCT-116, 96 h
[1] = Metabolic stability in BALB/c mouse hepatic microsomes assessed per mg of microsomal protein at 1 umol/L preincubated for 5 mins by LC-MS/MS method; type: ADME, Liver, Microsome; settings: 1 µM
Tubulin = Tubulin (Sus scrofa, UniProt P02554+P02550); test: Inhibition of tubulin polymerization assessed as reduction in tubulin assembly after 5 mins using pig microtubule protein by spectrophotometry; type: protein assay

Intrinsic clearance [1] [µL/min/mg] | IC50 (Tubulin) [nM] | SMILES | IC50 (HT-29) [nM] | IC50 (A549) [nM] | IC50 (HCT-116) [nM]
– | – | CCNC(=O)N[C@H]1CCc2c(Cl)c(OC)c(OC)c(OC)c2-c2ccc(OC)c(=O)cc21 | 81.8 | 247 | 134
– | – | COc1c(CF)c2c(c(OC)c1OC)-c1ccc(OC)c(=O)cc1[C@@H](NC(C)=O)CC2 | 2620 | 8790 | 4750
– | – | CCCCNC(=S)N[C@H]1CCc2c(Cl)c(OC)c(OC)c(OC)c2-c2ccc(OC)c(=O)cc21 | 1 | 7.4 | 1.8
– | – | COc1c(Cl)c2c(c(OC)c1OC)-c1ccc(OC)c(=O)cc1[C@@H](NC(=S)Nc1ccc(C#N)cc1)CC2 | 6.4 | 67.8 | 25
– | – | COc1c(Cl)c2c(c(OC)c1OC)-c1ccc(OC)c(=O)cc1[C@@H](NC(=S)Nc1cccc(C#N)c1)CC2 | 6.7 | 126 | 25.3
– | – | COc1c(Cl)c2c(c(OC)c1OC)-c1ccc(OC)c(=O)cc1[C@@H](NC(=S)Nc1cncnc1)CC2 | 154 | 941 | 177
– | – | COc1c(Cl)c2c(c(OC)c1OC)-c1ccc(OC)c(=O)cc1[C@@H](NC(=S)N1CCCC1)CC2 | 7.5 | 12.2 | 7.2
– | – | COc1c(Cl)c2c(c(OC)c1OC)-c1ccc(OC)c(=O)cc1[C@@H](NC(=S)N(C)CCO)CC2 | 30.4 | 44.9 | 32.6
88 | – | COc1c(Cl)c2c(c(OC)c1OC)-c1ccc(OC)c(=O)cc1[C@@H](NC(=S)Nc1nc[nH]n1)CC2 | 0.2 | 0.5 | 0.3
– | – | COc1c(Cl)c2c(c(OC)c1OC)-c1ccc(OC)c(=O)cc1[C@@H](NC(=S)Nc1nc(C)cs1)CC2 | 0.4 | 7.6 | 2.4
37 | – | COc1c(Cl)c2c(c(OC)c1OC)-c1ccc(OC)c(=O)cc1[C@@H](NC(=S)Nc1ccn(C)n1)CC2 | 0.7 | 5.8 | 1.3
223 | – | COc1c(Cl)c2c(c(OC)c1OC)-c1ccc(OC)c(=O)cc1[C@@H](NC(=S)Nc1n[nH]c(C)n1)CC2 | 0.3 | 1.7 | 0.5
– | – | COc1c(Cl)c2c(c(OC)c1OC)-c1ccc(OC)c(=O)cc1[C@@H](NC(=S)Nc1ncnn1C)CC2 | 18 | 40.3 | 33.9
– | – | CCCNC(=S)N[C@H]1CCc2c(Cl)c(OC)c(OC)c(OC)c2-c2ccc(OC)c(=O)cc21 | 1.6 | 9.9 | 4.3
– | – | COc1c(Cl)c2c(c(OC)c1OC)-c1ccc(OC)c(=O)cc1[C@@H](NC(=S)N1CCCCC1)CC2 | 6.1 | 9.6 | 6.9
– | – | COc1c(Cl)c2c(c(OC)c1OC)-c1ccc(OC)c(=O)cc1[C@@H](NC(=S)Nc1cc(C)on1)CC2 | 5.6 | 42.5 | 7.3
5 | – | CCS(=O)(=O)N[C@H]1CCc2c(Cl)c(OC)c(OC)c(OC)c2-c2ccc(OC)c(=O)cc21 | 42.6 | 48.1 | 39.9
– | – | COc1c(Cl)c2c(c(OC)c1OC)-c1ccc(OC)c(=O)cc1[C@@H](NS(=O)(=O)c1ccccc1)CC2 | 8.7 | 36.8 | 25.8
– | – | COc1c(Cl)c2c(c(OC)c1OC)-c1ccc(OC)c(=O)cc1[C@@H](NC(=S)Nc1ccccn1)CC2 | 34.6 | 170 | 61.7
– | – | COc1c(Cl)c2c(c(OC)c1OC)-c1ccc(OC)c(=O)cc1[C@@H](NC(=S)Nc1ccncc1)CC2 | 23.5 | 247 | 34.1
– | – | COc1c(Cl)c2c(c(OC)c1OC)-c1ccc(OC)c(=O)cc1[C@@H](NS(C)(=O)=O)CC2 | 38.6 | 45.4 | 36.9
43 | – | COc1c(Cl)c2c(c(OC)c1OC)-c1ccc(OC)c(=O)cc1[C@@H](NC(=O)N1CCCCC1)CC2 | 42.6 | 26.6 | 42.4
– | – | COc1c(Cl)c2c(c(OC)c1OC)-c1ccc(OC)c(=O)cc1[C@@H](NC(=O)N(C)C)CC2 | 53.2 | 192 | 50.4
– | – | COc1c(Cl)c2c(c(OC)c1OC)-c1ccc(OC)c(=O)cc1[C@@H](NC(=S)Nc1ccccc1)CC2 | 0.4 | 24.4 | 1.2
– | – | COc1c(Cl)c2c(c(OC)c1OC)-c1ccc(OC)c(=O)cc1[C@@H](NC(=S)Nc1ncn(C)n1)CC2 | 6 | 34.8 | 8.8

Intrinsic clearance [1] [µL/min/mg] | IC50 (Tubulin) [nM] | SMILES | IC50 (HT-29) [nM] | IC50 (A549) [nM] | IC50 (HCT-116) [nM]
– | – | COc1c(Cl)c2c(c(OC)c1OC)-c1ccc(OC)c(=O)cc1[C@@H](NC(=S)Nc1cccnn1)CC2 | 6.3 | 39.6 | 13.2
– | – | CCCN(CCC)C(=S)N[C@H]1CCc2c(Cl)c(OC)c(OC)c(OC)c2-c2ccc(OC)c(=O)cc21 | 38.2 | 40.3 | 34.4
– | – | COc1c(Cl)c2c(c(OC)c1OC)-c1ccc(OC)c(=O)cc1[C@@H](NC(N)=S)CC2 | 6.1 | 45 | 9
– | – | COc1c(Cl)c2c(c(OC)c1OC)-c1ccc(OC)c(=O)cc1[C@@H](NS(=O)(=O)CC(C)C)CC2 | 36.4 | 40.8 | 33.2
21 | – | CCN(CC)C(=O)N[C@H]1CCc2c(Cl)c(OC)c(OC)c(OC)c2-c2ccc(OC)c(=O)cc21 | 43.9 | 48.3 | 44.3
– | – | COc1c(Cl)c2c(c(OC)c1OC)-c1ccc(OC)c(=O)cc1[C@@H](NC(=S)N1CCC1)CC2 | 5.8 | 33.3 | 8.4
4 | 1110 | COc1c(Cl)c2c(c(OC)c1OC)-c1ccc(OC)c(=O)cc1[C@@H](NC(=S)Nc1cc(C)[nH]n1)CC2 | 0.3 | 2 | 0.3
– | – | CNC(=S)N[C@H]1CCc2c(Cl)c(OC)c(OC)c(OC)c2-c2ccc(OC)c(=O)cc21 | 2.8 | 10.9 | 6.3
– | – | COc1ccccc1NC(=S)N[C@H]1CCc2c(Cl)c(OC)c(OC)c(OC)c2-c2ccc(OC)c(=O)cc21 | 15 | 77.6 | 29.4
– | – | COc1c(Cl)c2c(c(OC)c1OC)-c1ccc(OC)c(=O)cc1[C@@H](NC(=S)Nc1cnccn1)CC2 | 19.4 | 37.4 | 33
– | – | COc1c(Cl)c2c(c(OC)c1OC)-c1ccc(OC)c(=O)cc1[C@@H](NC(=S)Nc1ccccc1C#N)CC2 | 866 | 3800 | 2200
– | – | COc1c(OC)c2c(c(C(F)F)c1OC)CC[C@H](NC(C)=O)c1cc(=O)c(OC)ccc1-2 | 48.1 | 55.4 | 45.8
– | – | COc1c(Cl)c2c(c(OC)c1OC)-c1ccc(OC)c(=O)cc1[C@@H](NC(=S)Nc1cccnc1)CC2 | 31.6 | 186 | 41.7
– | – | COc1c(Cl)c2c(c(OC)c1OC)-c1ccc(OC)c(=O)cc1[C@@H](NC(=S)N(C)C)CC2 | 8.8 | 10.7 | 8.4
– | – | COc1cccc(NC(=S)N[C@H]2CCc3c(Cl)c(OC)c(OC)c(OC)c3-c3ccc(OC)c(=O)cc32)c1 | 0.5 | 23.3 | 1.4
– | – | COc1c(Cl)c2c(c(OC)c1OC)-c1ccc(OC)c(=O)cc1[C@@H](NS(=O)(=O)C(C)C)CC2 | 42.2 | 44.9 | 40.7
188 | – | COc1c(Cl)c2c(c(OC)c1OC)-c1ccc(OC)c(=O)cc1[C@@H](NC(=S)Nc1cc[nH]n1)CC2 | 0.3 | 7.8 | 0.9
– | – | COc1c(Cl)c2c(c(OC)c1OC)-c1ccc(OC)c(=O)cc1[C@@H](NC(=S)NCCO)CC2 | 52.7 | 251 | 89.7
– | – | COc1c(Cl)c2c(c(OC)c1OC)-c1ccc(OC)c(=O)cc1[C@@H](NC(=S)Nc1nccs1)CC2 | 1.1 | 10.1 | 6.5
– | – | COc1c(Cl)c2c(c(OC)c1OC)-c1ccc(OC)c(=O)cc1[C@@H](NC(=O)Nc1ccccc1)CC2 | 35.2 | 48.1 | 36
– | – | COc1ccc(NC(=S)N[C@H]2CCc3c(Cl)c(OC)c(OC)c(OC)c3-c3ccc(OC)c(=O)cc32)cc1 | 0.3 | 8 | 1.4
– | – | CCCCCCNC(=S)N[C@H]1CCc2c(Cl)c(OC)c(OC)c(OC)c2-c2ccc(OC)c(=O)cc21 | 176 | 212 | 171
– | – | COc1c(Cl)c2c(c(OC)c1OC)-c1ccc(OC)c(=O)cc1[C@@H](NC(=O)NC(C)C)CC2 | 181 | 289 | 189
– | – | COc1c(Cl)c2c(c(OC)c1OC)-c1ccc(OC)c(=O)cc1[C@@H](NC(=S)Nc1cccc(N(C)C)c1)CC2 | 4.4 | 38.4 | 24.2
– | – | COc1c(OC)c2c(c(C(F)(F)F)c1OC)CC[C@H](NC(C)=O)c1cc(=O)c(OC)ccc1-2 | 35 | 55.2 | 37.9

SMILES | Intrinsic clearance [1] [µL/min/mg] | IC50 (Tubulin) [nM] | IC50 (HT-29) [nM] | IC50 (A549) [nM] | IC50 (HCT-116) [nM]
COc1cc2c(c(OC)c1OC)-c1ccc(OC)c(=O)cc1[C@@H](NC(C)=O)CC2 [COLCHICINE] | 1 | – | 8.2 | – | 10.6
COc1c(Cl)c2c(c(OC)c1OC)-c1ccc(OC)c(=O)cc1[C@@H](NC(C)=O)CC2 | 28 | – | 7.9 | 9.9 | 8.1
